Values after ≈ are worked out from the molar mass of the structure shown. Read-outs that look alike come from different tables or passages of the source.
Key:
[1] = tested on: AD/pABC3 (empty vector control, sensitive strain); test: microbe, parasite or virus in culture; conditions: Saccharomyces cerevisiae, read-out: MIC (drug susceptibility)
wt Cdr1 ATPase activity = wt Cdr1 ATPase activity (Candida albicans, UniProt Q5ANA3); test: biochemical; conditions: for Vmax of ATPase activity in the presence of inhibitor: CDR1
Chain of wt Cdr1 ATPase activity (Q5ANA3 whole entry): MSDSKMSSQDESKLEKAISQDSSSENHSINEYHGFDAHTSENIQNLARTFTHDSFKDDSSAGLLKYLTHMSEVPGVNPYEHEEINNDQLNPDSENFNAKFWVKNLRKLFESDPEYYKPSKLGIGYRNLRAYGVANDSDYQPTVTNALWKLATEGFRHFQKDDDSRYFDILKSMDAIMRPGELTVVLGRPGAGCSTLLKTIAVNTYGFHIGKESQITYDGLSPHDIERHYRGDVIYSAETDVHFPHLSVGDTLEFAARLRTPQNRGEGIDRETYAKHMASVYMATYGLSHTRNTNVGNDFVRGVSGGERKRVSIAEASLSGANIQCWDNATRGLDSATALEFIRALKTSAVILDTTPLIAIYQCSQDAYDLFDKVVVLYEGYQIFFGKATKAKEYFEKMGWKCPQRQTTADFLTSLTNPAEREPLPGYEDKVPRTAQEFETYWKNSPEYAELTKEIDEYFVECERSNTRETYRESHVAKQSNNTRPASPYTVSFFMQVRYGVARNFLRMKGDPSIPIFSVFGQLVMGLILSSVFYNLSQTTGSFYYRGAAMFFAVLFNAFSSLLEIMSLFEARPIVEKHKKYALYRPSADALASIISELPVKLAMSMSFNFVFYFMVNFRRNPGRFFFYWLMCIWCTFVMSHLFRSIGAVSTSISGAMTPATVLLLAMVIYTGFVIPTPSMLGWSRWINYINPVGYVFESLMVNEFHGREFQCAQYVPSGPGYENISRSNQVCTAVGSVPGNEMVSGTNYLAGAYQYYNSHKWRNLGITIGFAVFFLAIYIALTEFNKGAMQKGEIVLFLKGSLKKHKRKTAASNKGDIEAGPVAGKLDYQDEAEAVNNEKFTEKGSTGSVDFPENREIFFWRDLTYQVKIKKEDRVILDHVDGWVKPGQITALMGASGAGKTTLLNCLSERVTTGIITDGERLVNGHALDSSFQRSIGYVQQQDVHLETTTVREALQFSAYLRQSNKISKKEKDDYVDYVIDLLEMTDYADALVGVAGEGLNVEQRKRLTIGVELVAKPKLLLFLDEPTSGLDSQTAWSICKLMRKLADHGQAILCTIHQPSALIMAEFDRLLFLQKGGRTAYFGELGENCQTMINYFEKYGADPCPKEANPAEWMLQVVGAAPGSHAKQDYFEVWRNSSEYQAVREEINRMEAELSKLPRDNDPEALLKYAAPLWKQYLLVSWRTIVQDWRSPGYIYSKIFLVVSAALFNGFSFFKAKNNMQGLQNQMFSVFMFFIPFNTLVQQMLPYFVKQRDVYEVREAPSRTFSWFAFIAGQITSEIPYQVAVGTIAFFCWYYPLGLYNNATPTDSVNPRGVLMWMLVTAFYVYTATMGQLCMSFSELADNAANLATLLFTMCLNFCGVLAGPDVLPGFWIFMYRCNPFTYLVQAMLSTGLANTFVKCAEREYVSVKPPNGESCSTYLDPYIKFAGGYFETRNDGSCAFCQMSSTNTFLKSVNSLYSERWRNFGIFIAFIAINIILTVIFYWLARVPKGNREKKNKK

AD/CDR1-M639I = test: MIC, modified CLSI M27-A3 broth microdilution
AD/CDR1-A713P = test: MIC, modified CLSI M27-A3 broth microdilution
AD/CDR1-T1355N = test: MIC, modified CLSI M27-A3 broth microdilution
[2] = target: wt Cdr1 (FLC efflux of AD/CDR1 cells) (Candida albicans, UniProt Q5ANA3); conditions: for lowest MICFLC in the presence of inhibitor: FLC 5 to 640 mg/L tested
Chain of wt Cdr1 (FLC efflux of AD/CDR1 cells) (Q5ANA3 whole entry): as above

[3] = tested on: AD/pABC3 (empty vector control, sensitive strain)
[4] = tested on: AD/CDR1 (AD1-8u- overexpressing wt Cdr1); test: MIC, modified CLSI M27-A3 broth microdilution; conditions: Saccharomyces cerevisiae, read-out: MIC (drug susceptibility)
AD/CDR1-G521R = test: MIC, modified CLSI M27-A3 broth microdilution
[5] = target: Cdr1-M639I (FLC transport) (Candida albicans, UniProt Q5ANA3, M639I); test: Agarose diffusion FLC chemosensitization assay; type: cell-based; conditions: 0.25× MICFLC, disc
Chain of Cdr1-M639I (FLC transport) (Q5ANA3 whole entry M639I, the tested form may be a part): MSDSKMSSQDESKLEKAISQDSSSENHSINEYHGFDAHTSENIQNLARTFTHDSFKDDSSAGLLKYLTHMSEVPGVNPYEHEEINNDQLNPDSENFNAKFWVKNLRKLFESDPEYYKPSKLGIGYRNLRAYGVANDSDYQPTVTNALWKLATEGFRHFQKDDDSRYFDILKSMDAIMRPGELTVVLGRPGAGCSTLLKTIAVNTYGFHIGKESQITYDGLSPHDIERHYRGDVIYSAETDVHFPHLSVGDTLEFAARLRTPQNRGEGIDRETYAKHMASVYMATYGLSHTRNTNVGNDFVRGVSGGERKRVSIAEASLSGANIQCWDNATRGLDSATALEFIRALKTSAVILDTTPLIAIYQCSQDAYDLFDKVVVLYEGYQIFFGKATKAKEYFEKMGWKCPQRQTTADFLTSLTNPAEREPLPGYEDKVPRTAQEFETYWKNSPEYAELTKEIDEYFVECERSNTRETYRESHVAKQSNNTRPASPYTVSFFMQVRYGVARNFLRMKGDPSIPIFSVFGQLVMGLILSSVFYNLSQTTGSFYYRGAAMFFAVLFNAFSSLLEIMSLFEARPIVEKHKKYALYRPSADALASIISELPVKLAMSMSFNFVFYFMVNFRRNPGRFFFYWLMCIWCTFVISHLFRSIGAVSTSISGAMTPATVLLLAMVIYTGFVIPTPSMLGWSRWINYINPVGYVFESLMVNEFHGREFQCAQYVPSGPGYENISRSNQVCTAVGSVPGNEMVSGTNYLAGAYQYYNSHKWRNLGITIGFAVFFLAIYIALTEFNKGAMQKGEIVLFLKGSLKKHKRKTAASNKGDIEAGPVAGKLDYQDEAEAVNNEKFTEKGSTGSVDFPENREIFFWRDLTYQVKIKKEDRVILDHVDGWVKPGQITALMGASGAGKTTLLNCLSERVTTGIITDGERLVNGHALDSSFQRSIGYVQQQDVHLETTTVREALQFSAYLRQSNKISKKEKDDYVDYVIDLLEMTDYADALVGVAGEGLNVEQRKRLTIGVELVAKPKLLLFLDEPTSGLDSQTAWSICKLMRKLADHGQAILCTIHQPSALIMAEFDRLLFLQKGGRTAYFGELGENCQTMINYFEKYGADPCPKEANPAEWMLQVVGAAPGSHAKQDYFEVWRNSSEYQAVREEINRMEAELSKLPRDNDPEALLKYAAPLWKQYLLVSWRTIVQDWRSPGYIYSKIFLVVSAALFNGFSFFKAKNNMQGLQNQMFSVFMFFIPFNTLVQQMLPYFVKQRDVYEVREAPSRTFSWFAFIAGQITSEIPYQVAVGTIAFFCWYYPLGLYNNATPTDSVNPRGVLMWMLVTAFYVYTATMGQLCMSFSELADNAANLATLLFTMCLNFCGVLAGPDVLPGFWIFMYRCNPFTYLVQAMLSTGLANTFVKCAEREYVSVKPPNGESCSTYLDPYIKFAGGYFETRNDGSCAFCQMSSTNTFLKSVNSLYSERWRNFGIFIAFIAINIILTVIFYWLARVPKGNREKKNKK
Procedure: (§1) Compounds were tested for inhibition of FLC transport by yeast strains overexpressing Cdr1 or Cdr1 mutations.

[6] = target: Cdr1-G521R (FLC transport) (Candida albicans, UniProt Q5ANA3, G521R); test: Agarose diffusion FLC chemosensitization assay; type: cell-based; conditions: 0.25× MICFLC, disc
Procedure: as §1

[7] = target: Cdr1-A713P (FLC transport) (Candida albicans, UniProt Q5ANA3, A713P); test: Agarose diffusion FLC chemosensitization assay; type: cell-based; conditions: 0.25× MICFLC, disc
Procedure: as §1

[8] = target: Cdr1-T1355N (FLC transport) (Candida albicans, UniProt Q5ANA3, T1355N); test: Agarose diffusion FLC chemosensitization assay; type: cell-based; conditions: 0.25× MICFLC, disc
Procedure: as §1

[9] = tested on: all strains, including AD/pABC3; test: Liquid MIC of efflux pump inhibitors alone
[10] = tested on: AD/pABC3 (empty vector control, sensitive strain); conditions: cited from earlier work
[11] = target: wt Cdr1 (FLC transport of AD/CDR1 cells) (Candida albicans, UniProt Q5ANA3); test: Agarose diffusion FLC chemosensitization assay; type: cell-based; conditions: inhibitor-only control
Procedure: as §1

[12] = Saccharomyces cerevisiae, read-out: MIC (drug susceptibility)

Question: Which results are given for `OC(Cn1cncn1)(Cn1cncn1)c1ccc(F)cc1F` [FLC, fluconazole]?
Answer: MIC [1]: 1.25 µg/mL (≈ 4.08 µM); effect of substrate on ATPase activity (wt Cdr1 ATPase activity): no effect; Fold-reduced resistance level (MIC) relative to AD/CDR1 (AD/CDR1-M639I; M639I, 1 = no change): 1 fold; MIC (AD/CDR1-M639I; [12]): 640 µg/mL (≈ 2090 µM); Fold-reduced resistance level (MIC) relative to AD/CDR1 (AD/CDR1-A713P; A713P, 1 = no change): 2 fold; MIC (AD/CDR1-A713P; [12]): 320 µg/mL (≈ 1040 µM); MIC (AD/CDR1-T1355N; [12]): 320 µg/mL (≈ 1040 µM); Fold-reduced resistance level (MIC) relative to AD/CDR1 (AD/CDR1-T1355N; T1355N, 1 = no change): 2 fold; MICFLC [2]: 640 mg/L; MIC (drug susceptibility) [3]: 1 µg/mL (≈ 3.27 µM); MIC [4]: 640 µg/mL (≈ 2090 µM); Fold-reduced resistance level (MIC) relative to AD/CDR1 (AD/CDR1-G521R; G521R, 1 = no change): 4 fold; MIC (AD/CDR1-G521R; [12]): 160 µg/mL (≈ 522 µM)

Question: Which IC50 (wt Cdr1 ATPase activity) does the source give for `CC(C)[C@H]1C(=O)O[C@H](C(C)C)C(=O)N(C)[C@@H](C(C)C)C(=O)O[C@H](C(C)C)C(=O)N(C)[C@@H](C(C)C)C(=O)O[C@H](C(C)C)C(=O)N1C` [Enniatin B, enniatin B] here?
Answer: Its IC50 is 180 nM.

Question: And the Ki (wt Cdr1 ATPase activity)?
Answer: The Ki was 200 ± 30 nM.

Question: And the “Vmax of ATPase activity in the presence of inhibitor” value (wt Cdr1 ATPase activity; [I] 0.1 μM)?
Answer: The value was 182 nmol/min/mg.

Question: What about the “Vmax of ATPase activity in the presence of inhibitor” value (wt Cdr1 ATPase activity; [I] 0.5 μM) of the same molecule?
Answer: The value was 98 nmol/min/mg.

Question: What about the “type of inhibition of ATPase activity (Lineweaver-Burk)” value (wt Cdr1 ATPase activity; wt Cdr1) of the same molecule?
Answer: The value was “noncompetitive inhibition”.

Question: What about the “FICI (inhibitor/FLC combination)” value [2] of the same molecule?
Answer: Its value is less than 0.13.

Question: And the IC50 [2]?
Answer: Its IC50 is 160 nM.

Question: And the “lowest inhibitor concentration necessary to achieve the lowest MICFLC” value ([2]; CDR1)?
Answer: Its value is 1.25 µM.

Question: What about the “lowest MICFLC in the presence of inhibitor” value ([2]; CDR1) of the same molecule?
Answer: The value was 5 mg/L.

Question: And the “susceptibility of FLC transport to inhibitor on agar” value [5]?
Answer: Its value is “substantial resistance”.

Question: And the “susceptibility of FLC transport to inhibitor on agar” value [6]?
Answer: The value was “resistant”.

Question: What about the “susceptibility of FLC transport to inhibitor on agar” value [7] of the same molecule?
Answer: Its value is “remained susceptible”.

Question: And the “susceptibility of FLC transport to inhibitor on agar” value [8]?
Answer: The value was “substantial resistance”.

Question: What about the MIC ([9]; Saccharomyces cerevisiae, read-out: MIC of inhibitor alone) of the same molecule?
Answer: The MIC was 10 µM.

Question: What about the “synergy with the Cdr1 substrates FLC and R6G” value [10] of the same molecule?
Answer: The value was “no synergy”.

Question: Which results are given for milbemycin α25?
Answer: IC50 (wt Cdr1 ATPase activity; CDR1 (wt), from Fig. 4, read-out: IC50 for inhibition of Cdr1 ATPase activity): 2800 nM; FICI (inhibitor/FLC combination) [2]: <0.02; lowest inhibitor concentration necessary to achieve the lowest MICFLC ([2]; CDR1): 0.63 µM; lowest MICFLC in the presence of inhibitor ([2]; CDR1): 5 mg/L; FICI (inhibitor/FLC combination) ([2]; listed as milbemycin α25): 0.02; IC50 ([2]; read-out: IC50 for inhibition of FLC efflux (MICFLC), CDR1, live whole cells, from Fig. 3B): 80 nM; susceptibility of FLC transport to inhibitor on agar [5]: most resistance; susceptibility of FLC transport to inhibitor on agar [6]: more resistant; susceptibility of FLC transport to inhibitor on agar [7]: resistant; toxicity of inhibitor alone on agar without FLC [11]: slight growth inhibitory zone; susceptibility of FLC transport to inhibitor on agar [8]: most resistance; MIC of inhibitor alone ([9]; all strains, including AD/pABC3): > 20 µM
